Measurements: patent publication US20090270435A1 (priority 2006, published 2009)
Counter-ions that a name gives are not always drawn.

These molecules were tested against T1, ACC1 from rat liver (Rattus norvegicus, UniProt P11497) (assay: Direct inhibition of ACC1 activity (14C-bicarbonate incorporation)). Details: ACC1 from rat liver.
T1 construct: The livers (for ACC1 preparation) or skeletal muscle tissue (for ACC2 preparation) are removed; from tissue; host or cells: liver of male CD rats (fasted, then fed a high sucrose diet)
Type: biochemical
Description: [1] Preparation of ACC1 and ACC2.
Male CD rats weighing 150-200 g are fasted for 2 days and then fed a high sucrose diet (AIN-76A rodent diet; Cat # D10001, Research Diets Inc., New Brunswick, N.J.), for 3 days at which time they are sacrificed by CO2 asphyxiation. The livers (for ACC1 preparation) or skeletal muscle tissue (for ACC2 preparation) are removed, rinsed in ice-cold phosphate-buffered saline (PBS), and homogenized in 5 volumes of homogenization buffer (50 mM potassium phosphate, pH 7.5, 10 mM EDTA, 10 mM 2-mercaptoethanol, 2 mM benzamidine, 0.2 mM phenylmethylsulfonylfluoride (PMSF), 5 mg/L each leupeptin, aprotinin, and antitrypsin) in a Waring® blender for 1 minute at 4° C. All subsequent operations are carried out at 4° C. The homogenate is made 3% with respect to polyethylene glycol (PEG) by the addition of 50% PEG solution and centrifuged at 20,000×g for 15 minutes. The resulting supernatant is adjusted to 5% PEG with the addition of 50% PEG solution and stirred for 5 minutes. The pellet (contains ACC activity) is collected by centrifugation at 20,000×g for 20 minutes, rinsed with Ice-cold doubly distilled water to remove excess PEG and re-suspended in one-fourth the original homogenate volume with homogenization buffer. Ammonium sulfate (200 g/liter) is slowly added with stirring. After 45 minutes the enzyme is collected by centrifugation for 30 minutes at 20,000×g, re-suspended in 10 ml of 50 mM HEPES, pH7.5, 0.1 mM DTT, 1.0 mM EDTA, and 10% glycerol and desalted on a Sephadex™ G-25 column (2.5 cm-x 50 cm) (Pharmacia, Piscataway N.J. now GE Healthcare) […] equilibrated with the same buffer. The desalted enzyme preparation is stored in aliquots at −70° C. Immediately prior to use, frozen ACC1 or ACC2 aliquots are thawed, diluted to 500 μg/ml in buffer containing 50 mM HEPES, pH7.5, 1.0 mM MgCl2, 10 mM tripotassium citrate, 2.0 mM dithiothreitol (DTT), and 0.75 mg/ml fatty acid-free bovine serum albumin (BSA) and pre-incubated at 37° C. for 30 minutes.
[2] Measurement of ACC inhibition. The procedures for measuring ACC1 inhibition and ACC2 inhibition are identical except for the source of the isozyme. For measurement of ACC activity and assessment of ACC inhibition, test compounds are dissolved in dimethylsulfoxide (DMSO) and 1 μL aliquots are placed in 0.5 ml polypropylene tubes. Control tubes contain 1 μL of DMSO alone. Tubes are incubated at 37° C. in a constant temperature water bath. […] The reaction is then initiated by the addition of 10 μL of preincubated ACC fraction prepared as described above. After 7 minutes the reaction is terminated by the addition of 50 μL of 6N HCl and a 150 μL aliquot of the reaction mixture is transferred to glass scintillation vials and evaporated to dryness at 90° C. for at least 1 hour. The dried vials are then cooled, 0.5 ml of water and 5.5 ml of Ready Safe liquid scintillation fluid (Beckman Coulter Inc., Fullerton, Calif.) are added, and the radioactivity is determined using a liquid scintillation counter. Tubes that received HCl before ACC served as blanks.

Point of comparison: `CC(C)c1ccc2c(c1)C(=O)CC1(CCN(C(=O)c3cccc4cn[nH]c34)CC1)O2` [Ex. H10, 1′-(1H-indazol-7-ylcarbonyl)-6-isopropylspiro[chromene-2,4-piperidin]-4(3H)-one], IC50 693 nM. Against it:
- CCc1nn(C)c2cc(C(=O)N3CCC4(CC3)CC(=O)c3cc(C)c(C)cc3O4)ccc12 [Ex. G4, 1′-[(3-ethyl-1-methyl-1H-indazol-6-yl)carbonyl]-6,7-dimethylspiro[chromene-2,4′-piperidin]-4(3H)-one] — 8.7-fold lower, 80.1 nM
- Cc1cc2c(cc1C)C(=O)CC1(CCN(C(=O)c3cccc4cn[nH]c34)CC1)O2 [Ex. H1, 1′-(1H-indazol-7-ylcarbonyl)-6,7-dimethylspiro[chromene-2,4′-piperidin]-4(3H)-one] — 4.3-fold lower, 163 nM
- Cc1cc2c(cc1Cl)OC1(CCN(C(=O)c3cccc4cn[nH]c34)CC1)CC2=O [Ex. H2, 7-chloro-1′-(1H-indazol-7-ylcarbonyl)-6-methylspiro[chromene-2,4′-piperidin]-4(3H)-one] — 3.1-fold lower, 226 nM
- Cc1cc2c(cc1Br)C(=O)CC1(CCN(C(=O)c3cccc4cn[nH]c34)CC1)O2 [Ex. H3, 6-bromo-1′-(1H-indazol-7-ylcarbonyl)-7-methylspiro[chromene-2,4′-piperidin]-4(3H)-one] — 2.6-fold lower, 264 nM
- COc1cc(C)cc2c1C(=O)CC1(CCN(C(=O)c3cccc4cn[nH]c34)CC1)O2 [Ex. H4, 1′-(1H-indazol-7-ylcarbonyl)-5-methoxy-7-methylspiro[chromene-2,4′-piperidin]-4(3H)-one] — 2.5-fold lower, 279 nM
- Cc1cc2c(cc1Cl)C(=O)CC1(CCN(C(=O)c3cccc4cn[nH]c34)CC1)O2 [Ex. H5, 6-chloro-1′-(1H-indazol-7-ylcarbonyl)-7-methylspiro[chromene-2,4′-piperidin]-4(3H)-one] — 2.2-fold lower, 321 nM
- COc1ccc2c(c1F)C(=O)CC1(CCN(C(=O)c3cccc4cn[nH]c34)CC1)O2 [Ex. H6, 5-fluoro-1′-(1H-indazol-7-ylcarbonyl)-6-methoxyspiro[chromene-2,4′-piperidin]-4(3H)-one] — 1.8-fold lower, 381 nM
- COc1ccc2c(c1)C(=O)CC1(CCN(C(=O)c3cccc4cn[nH]c34)CC1)O2 [Ex. H7] — within 1.5-fold, 562 nM
- Cc1cc2c(c(C)c1Cl)C(=O)CC1(CCN(C(=O)c3cccc4cn[nH]c34)CC1)O2 [Ex. H8, 6-chloro-1′-(1H-indazol-7-ylcarbonyl)-5,7-dimethylspiro[chromene-2,4′-piperidin]-4(3H)-one] — within 1.5-fold, 590 nM
- COc1cc2c(c(OC)c1OC)C(=O)CC1(CCN(C(=O)c3cccc4cn[nH]c34)CC1)O2 [Ex. H11, 1′-(1H-indazol-7-ylcarbonyl)-5,6,7-trimethoxyspiro[chromene-2,4′-piperidin]-4(3H)-one] — within 1.5-fold, 756 nM
- Cc1ccc2c(c1)OC1(CCN(C(=O)c3cccc4cn[nH]c34)CC1)CC2=O [Ex. H12, 1′-(1H-indazol-7-ylcarbonyl)-7-methylspiro[chromene-2,4-piperidin]4(3H)-one] — within 1.5-fold, 850 nM
- Cc1cc(C)c2c(c1)C(=O)CC1(CCN(C(=O)c3cccc4cn[nH]c34)CC1)O2 [Ex. H13, 1′-(1H-indazol-7-ylcarbonyl)-6,8-dimethylspiro[chromen-2,4′-piperidin]-4(3H)-one] — 1.9-fold higher, 1320 nM
- O=C1CC2(CCN(C(=O)c3cccc4cn[nH]c34)CC2)Oc2ccc(Cl)cc21 [Ex. H14, 6-chloro-1′-(1H-indazol-7-ylcarbonyl)spiro[chromene-2,4′-piperidin]-4(3H)-one] — 2-fold higher, 1390 nM
- COc1cccc2c1C(=O)CC1(CCN(C(=O)c3cccc4cn[nH]c34)CC1)O2 [Ex. H16] — 2.3-fold higher, 1620 nM
- COc1c(Cl)ccc2c1C(=O)CC1(CCN(C(=O)c3cccc4cn[nH]c34)CC1)O2 [Ex. H17, 6-chloro-1′-(1H-indazol-7-ylcarbonyl)-5-methoxyspiro[chromene-2,4′-piperidin]-4(3H)-one] — 2.6-fold higher, 1830 nM
- O=C1CC2(CCN(C(=O)c3cccc4cn[nH]c34)CC2)Oc2cc(-c3ccccc3)ccc21 [Ex. H18, 1′-(1H-indazol-7-ylcarbonyl)-7-phenylspiro[chromene-2,4′-piperidin]-4(3H)-one] — 3.2-fold higher, 2210 nM
- O=C1CC2(CCN(C(=O)c3cccc4cn[nH]c34)CC2)Oc2cc(F)ccc21 [Ex. H19, 7-fluoro-1′-(1H-indazol-7-ylcarbonyl)spiro[chromene-2,4′-piperidin]-4(3H)-one] — 3.4-fold higher, 2350 nM
- COc1cccc2c1C(=O)CC1(CCN(C(=O)c3cccc4cn[nH]c34)CC1)O2 [Ex. H20, 1′-(1H-indazol-7-ylcarbonyl)-5-methoxyspiro[chromene-2,4′-piperidin]-4(3H)-one] — 3.5-fold higher, 2430 nM
- COc1ccc2c(c1)OC1(CCN(C(=O)c3cccc4cn[nH]c34)CC1)CC2=O [Ex. H21] — 3.7-fold higher, 2530 nM
- O=C1CC2(CCN(C(=O)c3cccc4cn[nH]c34)CC2)Oc2c(Cl)cc(Cl)cc21 [Ex. H22, 6,8-dichloro-1′-(1H-indazol-7-ylcarbonyl)spiro[chromene-2,4′-piperidin]-4(3H)-one] — 3.8-fold higher, 2660 nM
- Cc1cc2c(cc1Cl)C(=O)CC1(CCN(C(=O)c3cc(Br)cc4cn[nH]c34)CC1)O2 [Ex. J1, 1′-[(5-bromo-1H-indazol-7-yl)carbonyl]-6-chloro-7-methylspiro[chromene-2,4′-piperidin]-4(3H)-one] — 2-fold lower, 345 nM
- Cc1cc2c(cc1Cl)C(=O)CC1(CCN(C(=O)c3cccc4[nH]ncc34)CC1)O2 [Ex. J2, 6-chloro-1′-(1H-indazol-4-ylcarbonyl)-7-methylspiro[chromene-2,4′-piperidin]-4(3H)-one] — 1.8-fold lower, 375 nM
- Cc1cc2c(cc1C)C(=O)CC1(CCN(C(=O)c3ccc4nn(C)cc4c3)CC1)O2 [Ex. J3, 6,7-dimethyl-1′-[(2-methyl-2H-indazolyl)carbonyl]spiro[chromene-2,4-piperidin]-4(3H)-one] — 2-fold lower, 353 nM
- Cc1cc2c(cc1C)C(=O)CC1(CCN(C(=O)c3ccc4[nH]c5c(c4c3)CCNC5=O)CC1)O2 [Ex. K1, 6,7-dimethyl-1′-[(1-oxo-2,3,4,9-tetrahydro-1H-beta-carbolin-6-yl)carbonyl]spiro[chromene-2,4′-piperidin]-4(3H)-one] — 69-fold lower, 9.98 nM
- COc1cccc2c1C(=O)CC1(CCN(C(=O)c3ccc4[nH]c5c(c4c3)CCNC5=O)CC1)O2 [Ex. K2, 5-methoxy-1′-[(1-oxo-2,3,4,9-tetrahydro-1H-beta-carbolin-6-yl)carbonyl]spiro[chromene-2,4′-piperidin]-4(3H)-one] — 24-fold lower, 28.8 nM
- O=C1CC2(CCN(C(=O)c3ccc4[nH]c5c(c4c3)CCNC5=O)CC2)Oc2ccc(Cl)cc21 [Ex. K3, 6-chloro-1′-[(1-oxo-2,3,4,9-tetrahydro-1H-beta-carbolin-6-yl)carbonyl]spiro[chromene-2,4′-piperidin]-4(3H)-one] — 6.5-fold lower, 106 nM
- Cc1cc2c(cc1C)C(=O)CC1(CCN(C(=O)c3cccc4cc[nH]c34)CC1)O2 [Ex. L1, 1′-(1H-indol-7-ylcarbonyl)-6,7-dimethylspiro[chromene-2,4′-piperidin]-4(3H)-one trifluoroacetic acid salt] — 3.6-fold lower, 190 nM
- Cc1cc2c(cc1C)C(=O)CC1(CCN(C(=O)c3ccc4cc[nH]c4c3)CC1)O2 [Ex. L2, 1′-(1H-indol-6-ylcarbonyl)-6,7-dimethylspiro[chromene-2,4′-piperidin]-4(3H)-one trifluoroacetic acid salt] — 4.5-fold lower, 155 nM
- Cc1cc2ccc(C(=O)N3CCC4(CC3)CC(=O)c3cc(C)c(C)cc3O4)cc2[nH]1 [Ex. L3, 6,7-dimethyl-1′-[(2-methyl-1H-indol-6-yl)carbonyl]spiro[chromene-2,4′-piperidin]-4(3H)-one trifluoroacetic acid salt] — 1.9-fold lower, 368 nM
- Cc1cc2c(cc1C)C(=O)CC1(CCN(C(=O)c3ccc4ccn(C)c4c3)CC1)O2 [Ex. L4, 6,7-dimethyl-1′-[(1-methyl-1H-indol-6-yl)carbonyl]spiro[chromene-2,4′-piperidin]-4(3H)-one] — 8.3-fold lower, 83.3 nM
